Reference: ChEMBL document CHEMBL1131194, “Covalent modification of cyclooxygenase-2 (COX-2) by 2-acetoxyphenyl alkyl sulfides, a new class of selective COX-2 inactivators” (J Med Chem, 1998)

Tests used:
[1] = molecular target: T1, Prostaglandin G/H synthase 1 (Ovis aries, UniProt P05979); assay: Inhibitory concentration in DMSO with purified ovine Prostaglandin G/H synthase 1 (COX-1).
T1 sequence (P05979 whole entry): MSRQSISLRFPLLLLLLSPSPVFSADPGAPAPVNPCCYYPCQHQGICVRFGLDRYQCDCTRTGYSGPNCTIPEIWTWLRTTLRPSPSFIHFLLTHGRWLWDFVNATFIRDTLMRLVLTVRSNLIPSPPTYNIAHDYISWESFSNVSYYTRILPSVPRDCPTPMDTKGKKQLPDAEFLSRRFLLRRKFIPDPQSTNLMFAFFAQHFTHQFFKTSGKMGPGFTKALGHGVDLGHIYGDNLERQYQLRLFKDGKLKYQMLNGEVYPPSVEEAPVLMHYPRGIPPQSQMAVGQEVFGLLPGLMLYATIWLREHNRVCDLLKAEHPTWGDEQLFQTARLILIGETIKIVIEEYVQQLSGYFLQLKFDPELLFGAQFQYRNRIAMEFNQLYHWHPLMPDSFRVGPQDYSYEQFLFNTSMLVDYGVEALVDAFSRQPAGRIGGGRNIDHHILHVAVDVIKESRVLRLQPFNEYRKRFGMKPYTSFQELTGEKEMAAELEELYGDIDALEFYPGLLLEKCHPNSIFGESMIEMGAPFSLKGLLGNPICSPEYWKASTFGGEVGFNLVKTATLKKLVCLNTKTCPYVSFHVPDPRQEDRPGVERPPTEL

[2] = molecular target: T2, Prostaglandin G/H synthase 2 (Homo sapiens, UniProt P35354); assay: Inhibitory concentration in DMSO with purified human Prostaglandin G/H synthase 2 (COX-2)
T2 sequence (P35354 whole entry): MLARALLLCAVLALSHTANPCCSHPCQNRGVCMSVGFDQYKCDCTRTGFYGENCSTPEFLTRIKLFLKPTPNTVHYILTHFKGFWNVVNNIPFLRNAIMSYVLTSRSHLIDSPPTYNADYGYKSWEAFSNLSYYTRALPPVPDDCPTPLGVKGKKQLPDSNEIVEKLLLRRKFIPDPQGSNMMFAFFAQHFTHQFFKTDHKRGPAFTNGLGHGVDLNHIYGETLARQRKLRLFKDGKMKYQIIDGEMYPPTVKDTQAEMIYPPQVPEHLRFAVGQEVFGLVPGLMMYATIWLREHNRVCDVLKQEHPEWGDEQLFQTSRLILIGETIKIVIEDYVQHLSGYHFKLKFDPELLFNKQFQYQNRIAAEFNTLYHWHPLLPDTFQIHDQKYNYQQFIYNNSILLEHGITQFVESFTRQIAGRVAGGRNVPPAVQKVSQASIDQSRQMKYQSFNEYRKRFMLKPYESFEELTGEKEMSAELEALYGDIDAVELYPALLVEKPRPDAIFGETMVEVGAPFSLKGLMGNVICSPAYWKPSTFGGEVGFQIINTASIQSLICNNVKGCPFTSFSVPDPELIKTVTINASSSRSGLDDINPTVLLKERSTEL

| IC50 [1] [µM] | IC50 [2] [µM] | SMILES |
| --- | --- | --- |
| > 40 | > 40 | CCCCCCCS(=O)(=O)c1ccccc1OC(C)=O |
| 50 | 50 | CC(=O)Oc1ccccc1SCCCCCC(=O)O |
| > 40 | > 40 | CCCCCCCOc1ccccc1OC(C)=O |
| > 50 | > 50 | CCCOCCCSc1ccccc1OC(C)=O |
| > 50 | > 50 | CC(=O)Oc1ccccc1SCCCCC(=O)O |
| > 40 | > 40 | CCCCC#CCSc1ccccc1OC(=O)CC |
| > 1000 | > 1000 | CC(=O)Oc1ccccc1SCCCOc1ccccc1 |
| 15 | 7 | CCCCC#CC(C)Sc1ccccc1OC(C)=O (configuration not stated) |
| 50 | 50 | CC(=O)OCCCCCSc1ccccc1OC(C)=O |
| 25 | 12 | CC(=O)Oc1ccccc1SCCCCCCBr |
| > 5000 |  | CSc1ccccc1OC(C)=O |
| 34 | 9.5 | CC(=O)Oc1ccccc1SCCCCCBr |
| > 40 | > 40 | CCCCCCCCCSc1ccccc1OC(C)=O |
| > 1000 | > 1000 | CCC(=O)Oc1ccccc1SC |
| > 40 | > 40 | CCCCCCC[S+]([O-])c1ccccc1OC(C)=O (configuration not stated) |
| > 40 | > 40 | CCCCCCCCc1ccccc1OC(C)=O |
| > 50 | > 50 | CC(=O)Oc1ccccc1SCCCCCO |
| 40 |  | CCCCSc1ccccc1OC(C)=O |
| > 50 | > 50 | CC(=O)Oc1ccccc1SCCCCC#N |
| > 40 | > 40 | CCCCC#CCOc1ccccc1OC(C)=O |
| 35 |  | CC#CCSc1ccccc1OC(C)=O |
| > 150 |  | CC(=O)Oc1ccccc1SCCc1ccccc1 |
| > 40 | > 40 | CC(=O)Oc1ccccc1SC1CCCCCC1 |
| > 40 | > 40 | CC(=O)Oc1ccccc1SC1CCCCC1 |
| > 1000 | > 1000 | CC(=O)Oc1ccccc1SCCCc1ccccc1 |
| 70 | 10 | CC(=O)Oc1ccccc1SCCCCCCI |
| 22 |  | CCCC/C=C/CSc1ccccc1OC(C)=O |
| > 40 | > 40 | CCCCCCCN(C)c1ccccc1OC(C)=O |
| > 40 | > 40 | CCCCCCCCSc1ccccc1OC(C)=O |
| > 400 |  | CC(=O)Oc1ccccc1SCc1ccccc1 |

| SMILES | IC50 [1] [µM] | IC50 [2] [µM] |
| --- | --- | --- |
| CCCCCCC[Se]c1ccccc1OC(C)=O | 12 | 12 |
| CCCCC#CCSc1ccccc1OC(C)=O | 17 |  |
